Measurements taken from patent publication US11739064B2, “HDAC inhibitors and therapeutic methods using the same” (THE BOARD OF TRUSTEES OF THE UNIVERSITY OF ILLINOIS, priority 2015, dated 2023).

What was measured:
L3.6pl = assay: In vitro growth inhibition (GI), MTS cell proliferation assay (Table 5), L3.6pl; format: cell-based; settings: Homo sapiens, 72 hours post-treatment
BxPC3 = assay: In vitro growth inhibition (GI), MTS cell proliferation assay (Table 5), BxPC3; format: cell-based; settings: Homo sapiens, BXPC-3, 72 hours post-treatment
Human HDAC6 = target: T1, Human HDAC6 (Homo sapiens, UniProt Q9UBN7); assay: In vitro HDAC inhibition assay, HDAC6; format: biochemical; settings: read-out: HDAC isoform IC50, HDAC6
T1 construct: Full length with N-terminal GST tag, MW=159 kDa; GST (N); host or cells: baculovirus expression system, Sf9 cells
T1 sequence (Q9UBN7 1-1215): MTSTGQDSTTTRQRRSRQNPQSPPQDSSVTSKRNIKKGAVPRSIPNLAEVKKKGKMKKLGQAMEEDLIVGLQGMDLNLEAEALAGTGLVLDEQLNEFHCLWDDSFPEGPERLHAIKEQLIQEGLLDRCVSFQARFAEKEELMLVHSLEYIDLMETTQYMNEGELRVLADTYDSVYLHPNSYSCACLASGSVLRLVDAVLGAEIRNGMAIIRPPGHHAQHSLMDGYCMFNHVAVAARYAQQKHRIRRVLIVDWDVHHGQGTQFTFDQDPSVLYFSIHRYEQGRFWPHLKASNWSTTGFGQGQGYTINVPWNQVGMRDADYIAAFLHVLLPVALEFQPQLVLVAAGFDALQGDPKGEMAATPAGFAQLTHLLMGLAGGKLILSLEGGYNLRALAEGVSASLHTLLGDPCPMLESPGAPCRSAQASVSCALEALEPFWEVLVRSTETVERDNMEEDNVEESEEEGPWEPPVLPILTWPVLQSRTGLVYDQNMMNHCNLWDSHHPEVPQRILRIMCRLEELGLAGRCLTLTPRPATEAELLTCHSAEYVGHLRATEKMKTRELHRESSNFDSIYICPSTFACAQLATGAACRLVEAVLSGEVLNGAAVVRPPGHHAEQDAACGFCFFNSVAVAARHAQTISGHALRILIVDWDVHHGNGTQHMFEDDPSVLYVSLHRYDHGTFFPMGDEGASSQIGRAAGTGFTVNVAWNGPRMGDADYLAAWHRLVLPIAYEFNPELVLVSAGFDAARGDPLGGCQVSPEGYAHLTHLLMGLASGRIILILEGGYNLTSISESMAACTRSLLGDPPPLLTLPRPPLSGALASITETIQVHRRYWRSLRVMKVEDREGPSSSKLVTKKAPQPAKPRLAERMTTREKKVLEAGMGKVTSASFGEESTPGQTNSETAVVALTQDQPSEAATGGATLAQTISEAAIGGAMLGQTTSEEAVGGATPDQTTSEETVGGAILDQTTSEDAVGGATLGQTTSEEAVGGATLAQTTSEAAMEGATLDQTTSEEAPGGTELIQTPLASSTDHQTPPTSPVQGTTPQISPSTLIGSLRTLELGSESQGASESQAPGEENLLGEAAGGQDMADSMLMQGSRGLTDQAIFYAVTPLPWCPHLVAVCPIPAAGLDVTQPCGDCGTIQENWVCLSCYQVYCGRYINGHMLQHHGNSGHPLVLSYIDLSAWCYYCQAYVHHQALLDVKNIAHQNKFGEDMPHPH

HDAC2 = HDAC2 (Homo sapiens, UniProt Q92769); assay: In vitro HDAC inhibition assay, HDAC2; format: biochemical; settings: NI = No inhibition at a concentration of 50 pM (footnote b); read-out: HDAC isoform IC50, HDAC2
Chain of HDAC2 (Q92769 whole entry, canonical isoform): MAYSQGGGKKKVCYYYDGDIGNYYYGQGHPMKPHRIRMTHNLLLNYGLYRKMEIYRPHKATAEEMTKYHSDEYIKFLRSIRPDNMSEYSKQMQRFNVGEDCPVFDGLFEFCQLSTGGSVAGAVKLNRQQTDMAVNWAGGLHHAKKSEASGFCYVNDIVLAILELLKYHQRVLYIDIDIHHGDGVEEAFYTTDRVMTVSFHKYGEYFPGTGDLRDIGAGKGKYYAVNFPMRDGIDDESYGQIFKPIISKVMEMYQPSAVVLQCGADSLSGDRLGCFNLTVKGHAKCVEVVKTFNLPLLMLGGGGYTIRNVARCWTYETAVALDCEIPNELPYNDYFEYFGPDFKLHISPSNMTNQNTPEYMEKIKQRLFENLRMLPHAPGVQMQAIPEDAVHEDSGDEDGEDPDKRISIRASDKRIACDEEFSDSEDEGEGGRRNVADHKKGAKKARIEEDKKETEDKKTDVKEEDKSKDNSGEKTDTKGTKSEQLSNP

HDAC3/NcoR2 complex = HDAC3/NcoR2 complex (Homo sapiens, UniProt O15379); assay: In vitro HDAC inhibition assay, HDAC3; format: biochemical; settings: NI = No inhibition at a concentration of 50 pM (footnote b); read-out: HDAC isoform IC50, HDAC3
Chain of HDAC3/NcoR2 complex (O15379 whole entry, canonical isoform): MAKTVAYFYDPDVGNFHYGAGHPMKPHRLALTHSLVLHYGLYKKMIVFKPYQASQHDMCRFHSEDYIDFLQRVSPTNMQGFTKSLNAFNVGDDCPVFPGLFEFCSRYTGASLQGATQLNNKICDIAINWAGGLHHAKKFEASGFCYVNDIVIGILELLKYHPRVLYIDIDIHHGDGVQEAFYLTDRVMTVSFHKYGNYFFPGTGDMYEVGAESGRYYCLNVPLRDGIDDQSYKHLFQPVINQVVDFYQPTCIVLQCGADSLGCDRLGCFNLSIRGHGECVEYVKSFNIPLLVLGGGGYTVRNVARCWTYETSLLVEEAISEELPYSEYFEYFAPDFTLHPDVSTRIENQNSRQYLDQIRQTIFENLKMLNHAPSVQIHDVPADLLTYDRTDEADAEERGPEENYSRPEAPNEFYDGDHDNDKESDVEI
Chain of HDAC3/NcoR2 complex (Q9Y618 395-489 partner limits assumed): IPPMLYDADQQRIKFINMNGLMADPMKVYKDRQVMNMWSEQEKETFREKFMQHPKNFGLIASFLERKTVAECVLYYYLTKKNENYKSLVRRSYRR

acetylated alpha-tubulin = assay: Accumulation of acetylated alpha-tubulin in pancreatic cancer cells; format: cell-based; settings: FIG. 1A
Excerpt: Cell cycle and inhibition of alpha-tubulin deacetylation.

Human HDAC1 = Human HDAC1 (Homo sapiens, UniProt Q13547); assay: In vitro HDAC inhibition assay, HDAC1; settings: read-out: HDAC isoform IC50, HDAC1; NI = No inhibition at a concentration of 50 pM (footnote b)
Chain of Human HDAC1 (Q13547 whole entry, canonical isoform): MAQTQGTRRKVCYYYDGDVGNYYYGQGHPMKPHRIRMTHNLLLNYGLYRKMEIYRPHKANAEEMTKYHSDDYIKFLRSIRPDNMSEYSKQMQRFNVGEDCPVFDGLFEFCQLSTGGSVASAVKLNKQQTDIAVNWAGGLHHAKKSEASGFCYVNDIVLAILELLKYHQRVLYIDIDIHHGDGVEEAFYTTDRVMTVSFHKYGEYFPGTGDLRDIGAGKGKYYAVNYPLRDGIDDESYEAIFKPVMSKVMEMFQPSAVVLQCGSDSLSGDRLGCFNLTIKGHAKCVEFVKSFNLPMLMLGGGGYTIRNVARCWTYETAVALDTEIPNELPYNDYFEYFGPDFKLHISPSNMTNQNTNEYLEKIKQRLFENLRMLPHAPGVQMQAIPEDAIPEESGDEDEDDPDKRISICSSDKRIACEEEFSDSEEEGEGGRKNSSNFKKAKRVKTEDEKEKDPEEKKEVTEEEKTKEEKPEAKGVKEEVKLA

HDAC10 = target: T2, HDAC10 (Homo sapiens, UniProt Q969S8); assay: In vitro HDAC inhibition assay, HDAC10; format: biochemical; settings: NI = No inhibition at a concentration of 50 pM (footnote b); read-out: HDAC isoform IC50, HDAC10
T2 sequence (Q969S8 1-669): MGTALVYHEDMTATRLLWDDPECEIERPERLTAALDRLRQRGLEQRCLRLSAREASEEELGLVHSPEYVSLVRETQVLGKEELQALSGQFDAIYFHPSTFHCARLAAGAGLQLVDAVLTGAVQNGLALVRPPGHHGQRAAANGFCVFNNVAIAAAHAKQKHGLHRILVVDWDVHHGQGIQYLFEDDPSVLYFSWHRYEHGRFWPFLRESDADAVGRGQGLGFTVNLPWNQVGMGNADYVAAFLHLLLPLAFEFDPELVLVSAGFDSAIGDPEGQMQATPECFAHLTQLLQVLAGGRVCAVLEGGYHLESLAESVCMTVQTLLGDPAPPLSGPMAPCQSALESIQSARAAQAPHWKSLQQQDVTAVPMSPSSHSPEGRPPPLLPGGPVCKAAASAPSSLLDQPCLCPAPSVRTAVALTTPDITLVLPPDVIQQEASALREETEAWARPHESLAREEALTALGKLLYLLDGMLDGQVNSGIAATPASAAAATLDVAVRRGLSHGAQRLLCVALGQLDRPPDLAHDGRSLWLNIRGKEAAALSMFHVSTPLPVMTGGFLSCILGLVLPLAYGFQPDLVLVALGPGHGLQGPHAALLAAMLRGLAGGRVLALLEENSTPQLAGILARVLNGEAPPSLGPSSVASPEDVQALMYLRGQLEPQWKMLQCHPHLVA

PANC1 cells [1] = assay: Scratch-wound cell migration assay; format: cell-based; parameters: key to Inhibition of cell migration, 24 h / Inhibition of cell migration, 48 h: Level of inhibition (high to low): +++, ++ or +; Level of inhibition (high to low): +++, ++ or +; Level of inhibition (high to low): +++, ++ or +; no inhibition: −; settings: for Inhibition of cell migration, 24 h: PANC1, 24 h post wounding; for Inhibition of cell migration, 48 h: PANC1, 48 h post wounding
Experimental: FIG. 2 contains photographs of PANC1 cells treated with present compounds 9 and 6 taken 24 and 48 hours (post wounding) after a scratch was made through a confluent layer of cells; and
PANC1 Cell migration and effect on T and NK Cells. The effect of HDAC6 inhibition on cell migration and cellular cytotoxicity was evaluated. […] Thus, these HDAC6-selective inhibitors could function well to block metastasis. However, in contrast to the effect observed on cell migration, none of the compounds tested affected CD8+ T cell or natural killer (NK) cell-mediated cytotoxicity, despite the ability of the compounds to substantially increase the levels of acetyl-tubulin in these cell lines.

PANC1 cells [2] = assay: Cell cycle analysis; format: cell-based; settings: FIG. 1B, accumulation in the G2/M phase
Excerpt: This finding is consistent with cell cycle data, which indicate that treatment of pancreatic cancer cells with a present HDACIs results in an accumulation of cells in the G2/M phase of the cell cycle.

[3] = tested on: L3.6pl pancreatic cancer cells; assay: Apoptosis by Hoechst staining and PARP cleavage; format: cell-based; settings: 10 μM, 24 hours after the initiation of treatment
Experimental: FIG. 3 contains photographs and Western immunoblots showing that HDAC inhibitors of present invention induce apoptosis on L3.6p1 pancreatic cancer cells. L3.6p1 pancreatic cancer cells were treated with 10 μM of compound 1, 2 or 4 for 24 hrs as indicated. Cells were collected and processed to Hoechst staining (upper panel) and cell lysates were prepared for Western immunoblotting (lower panel). 50 μg of proteins were separated by SDS-PAGE, transferred to PVDF membrane, and immunoblotted as indicated.

BxPC-3 = assay: In vitro growth inhibition of pancreatic cancer cell lines (Table 3), BxPC-3; format: cell-based; settings: Homo sapiens, 72 hours post-treatment, cell viability
Experimental: (§1) In Vitro growth inhibition of pancreatic cancer cell lines. Four of the present HDACIs were analyzed in the [3-(4,5-dimethylthiazol-2-yl)]-2,5-diphenyltetrazolium bromide (MTT) assay in four pancreatic cancer cell lines (Table 3).

Mia PaCa-2 = assay: In vitro growth inhibition of pancreatic cancer cell lines (Table 3), Mia PaCa-2; format: cell-based; settings: Homo sapiens, 72 hours post-treatment, cell viability
Experimental: as §1

Panc 04.03 = assay: In vitro growth inhibition of pancreatic cancer cell lines (Table 3), Panc 04.03; format: cell-based; settings: Homo sapiens, 72 hours post-treatment, cell viability
Experimental: as §1

PANC1 = assay: In vitro growth inhibition of pancreatic cancer cell lines (Table 3), PANC1; format: cell-based; settings: Homo sapiens, PANC-1; 72 hours post-treatment, cell viability
Experimental: as §1

SMILES	GI50 (L3.6pl) [µM]	GI50 (BxPC3) [µM]	IC50 (Human HDAC6) [µM]	IC50 (HDAC2) [µM]	IC50 (HDAC3/NcoR2 complex) [µM]	Accumulation of acetylated alpha-tubulin (acetylated alpha-tubulin)	IC50 (Human HDAC1) [µM]	IC50 (HDAC10) [µM]	Inhibition of cell migration, 24 h (PANC1 cells [1])	Inhibition of cell migration, 48 h (PANC1 cells [1])	Cell cycle arrest (PANC1 cells [2])	Induction of apoptosis (Hoechst staining and PARP cleavage) [3]	IC50 (BxPC-3) [µM]	IC50 (Mia PaCa-2) [µM]	IC50 (Panc 04.03) [µM]	IC50 (PANC1) [µM]
CC(C)(C)OC(=O)Nc1cccc(-c2cc(C(=O)NCc3ccc(C(=O)NO)cc3)no2)c1 [Compound 14, {3-[3-(4-Hydroxycarbamoyl-benzylcarbamoyl)-isoxazol-5-yl]-phenyl}-carbamic acid tert-butyl ester]	> 50	7.8	0.00064	1.38	0.789	accumulation of acetylated alpha-tubulin	0.444	2.73	−	−	cell cycle arrest					
O=C(CCc1cc(C(=O)NO)no1)Nc1nc(-c2ccccc2)cs1 [Compound 1, 5-[2-(4-Phenyl-thiazol-2-ylcarbamoyl)-ethyl]-isoxazole-3-carboxylic acid hydroxyl amide]	1.3	1.5	0.031	1.14	0.32		0.307	0.407				effectively induced apoptosis	1			
CCOC(=O)Nc1ccc(-c2csc(NC(=O)CCCc3cc(C(=O)NO)no3)n2)cc1 [Compound 4, (4-{2-[4-(3-Hydroxycarbamoyl-isoxazol-5-yl)-butyrylamino]-thiazol-4-yl}-phenyl)-carbamic acid ethyl ester]	1.7	1.7	0.0489	0.834	0.354		0.2	0.323				effectively induced apoptosis	15.2	1.9	13.5	11
O=C(NO)c1ccc(CNC(=O)c2cc(Cn3c4ccccc4c4ccccc43)on2)cc1 [Compound 18, 5-Carbazol-9-ylmethyl-isoxazole-3-carboxylic acid 4-hydroxycarbamoyl-benzylamide]	1.3	2.4	0.0006	1.37	0.479	accumulation of acetylated alpha-tubulin	0.495	22.2	+	−	cell cycle arrest					
CC(C)(C)OC(=O)Nc1ccc(-c2cc(C(=O)NCc3ccc(C(=O)NO)cc3)no2)cc1 [Compound 15, {4-[3-(4-Hydroxycarbamoyl-benzylcarbamoyl)-isoxazol-5-yl]-phenyl}-carbamic acid tert-butyl ester]	2	8.1	0.00033	1.9	0.135	accumulation of acetylated alpha-tubulin	0.436	3.16			cell cycle arrest					
O=C(CCCc1cc(C(=O)NO)no1)Nc1nc(-c2ccccc2)cs1 [Compound 2, 5-[3-(4-Phenyl-thiazol-2-ylcarbamoyl)-propyl]-isoxazole-3-carboxylic acid hydroxyamide]	0.7	2.3	0.0818	1.22	0.934		0.351	0.854				effectively induced apoptosis	20.8	1.3	48.4	2.5
